Results from patent EP4585599A1, “NITROGEN-CONTAINING FUSED RING COMPOUND, INTERMEDIATE THEREOF, PREPARATION METHOD THEREFOR AND USE THEREOF” (Hangzhou Synrx Therapeutics Biomedical Technology Co., Ltd., priority 2022, dated 2024).
Like-named read-outs stand apart in the source and are kept apart here.

Experiments:
[1] = target: T1, helicase domain of the Pol θ protein (Homo sapiens, UniProt O75417); experiment: Biochemical Activity Assay (ADP Glo Assay) of Pol θ inhibitor, ATPase activity
T1 construct: The helicase domain of the Pol θ protein was purified from insect protein expression system; made in house; host or cells: insect protein expression system
T1 sequence (O75417 102-554 limits assumed): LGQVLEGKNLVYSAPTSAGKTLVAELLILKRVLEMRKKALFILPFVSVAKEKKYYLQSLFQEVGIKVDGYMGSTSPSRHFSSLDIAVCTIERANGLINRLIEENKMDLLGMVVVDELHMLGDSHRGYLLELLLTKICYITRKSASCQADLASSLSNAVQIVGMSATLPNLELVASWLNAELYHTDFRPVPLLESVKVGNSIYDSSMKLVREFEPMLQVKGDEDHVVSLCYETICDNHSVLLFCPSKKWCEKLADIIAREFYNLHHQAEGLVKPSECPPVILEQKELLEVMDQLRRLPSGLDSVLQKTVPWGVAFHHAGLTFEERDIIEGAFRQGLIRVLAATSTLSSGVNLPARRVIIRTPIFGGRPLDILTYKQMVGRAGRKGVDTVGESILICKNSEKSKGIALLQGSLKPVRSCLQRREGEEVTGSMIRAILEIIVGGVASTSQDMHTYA

[2] = cells; conditions: Homo sapiens, DLD-1, 240 h
[3] = ADP-Glo assay, ATPase activity of Pol θ helicase domain, ssDNA substrate, read-out: Biochemical assay IC50
[4] = ADP-Glo, ssDNA substrate, 60 min at room temperature, read-out: Biochemical assay IC50
[5] = read-out: Cell viability assay IC50 (nM), CTG assay, CellTiter Glo, read on Day 10, cell line not given
[6] = read-out: Cell viability assay IC50 (nM), CTG on Day 10, cell line not given (method: DLD1 and DLD1^-/- cells)
[7] = read-out: Cell viability assay IC50 (nM)

Structure (SMILES) | IC50 [1, 3] | IC50 [1, 4] | IC50 [2, 5] | IC50 [2, 6] | IC50 ([1]; read-out: Biochemical assay IC50) | IC50 [2, 7] | IC50 ([1]; Biochemical assay IC50 (nM))
COc1cnc(Cl)cc1-c1cc(C)ncc1C(=O)Nc1nc2ccc([C@H]3CC[C@H](O)CC3)nc2s1 [Example 29] | 12.9 nM | < 50 nM | 131 nM | 100 to 500 nM | – | – | –
COc1cnc(Cl)cc1-c1cc(C)ncc1C(=O)Nc1nc2cnc(-c3ncco3)cc2s1 [Example 205, 2'-chloro-5'-methoxy-6-methyl-N-(6-(oxazol-2-yl)thiazolo[4,5-c]pyridin-2-yl)-[4,4'-bipyridine]-3-carboxamide] | 5.24 nM | – | 20 nM | – | – | – | –
COc1cnc(Cl)cc1-c1cc(C)ncc1C(=O)Nc1nc2ncc(N3CCCC(O)CC3)cc2s1 (stereo not shown) [Example 64] | 25.4 nM | < 50 nM | 681 nM | 500 to 1000 nM | – | – | –
COc1cnc(Cl)cc1-c1cc(C)ncc1C(=O)Nc1nc2ccc(N3CC[C@@H](O)C[C@H]3C)nc2s1 [Example 135] | 5.41 nM | – | 19.2 nM | – | – | – | –
COc1cnc(Cl)cc1-c1cc(C(F)(F)F)ncc1C(=O)Nc1nc2ccc(N3CCC(O)CC3)nc2s1 [Example 122] | 145 nM | – | 2710 nM | – | – | – | –
COc1cnc(C(F)F)cc1-c1cc(C)ncc1C(=O)Nc1nc2cnc(-c3c(C)nnn3C3CC3)cc2s1 [Example 213, N-(6-(1-cyclopropyl-4-methyl-1H-1,2,3-triazol-5-yl)thiazolo[4,5-c]pyridin-2-yl)-2'-(difluoromethyl)-5'-methoxy-6-methyl-[4,4'-bipyridine]-3-carboxamide] | 3.63 nM | – | 4.13 nM | – | – | – | –
COc1cc(P(C)(C)=O)ccc1-c1cc(C)ncc1C(=O)Nc1nc2cnc(-c3c(C)cnn3C)cc2s1 [Example 153] | 24.4 nM | – | 545 nM | – | – | – | –
COc1cnc(Cl)cc1-c1cc(C)ncc1C(=O)Nc1nc2ncc(C(C)(C)O)cc2s1 [Example 95, 2'-chloro-N-(6-(2-hydroxypropan-2-yl)thiazolo[4,5-b]pyridin-2-yl)-5'-methoxy-6-methyl-[4,4'-bipyridine]-3-carboxamide] | 8.94 nM | < 50 nM | 383 nM | 100 to 500 nM | – | – | –
COc1cnc(Cl)cc1-c1cc(C)ncc1C(=O)Nc1nc2ncc(N3CCC(O)CC3)cc2s1 [Example 59] | 3.63 nM | < 50 nM | 82.5 nM | < 100 nM | – | – | –
COc1cnc(Cl)cc1-c1cc(C)ncc1C(=O)Nc1nc2ncc(N3CCCC(O)C3)cc2s1 (stereo not shown) [Example 71] | 4.46 nM | < 50 nM | 142 nM | 100 to 500 nM | – | – | –
COc1cnc(Cl)cc1-c1cc(C)ncc1C(=O)Nc1nc2cnc(-c3[nH]ncc3C)cc2s1 [Example 161] | 3.41 nM | – | 121 nM | – | – | – | –
COc1cnc(C(F)F)cc1-c1cc(C)ncc1C(=O)Nc1nc2cnc(N3CCC(O)CC3)nc2s1 [Example 198] | – | – | – | – | 4.23 nM | 23.3 nM | –
COc1cnc(Cl)cc1-c1cc(C)ncc1C(=O)Nc1nc2ncc(C3=CC(O)CC3)cc2s1 (stereo not shown) [Example 79] | 3.35 nM | < 50 nM | 92.6 nM | < 100 nM | – | – | –
COc1cnc(Cl)cc1-c1cc(C)ncc1C(=O)Nc1nc2ncc(-c3cnc4[nH]ccc4c3)cc2s1 [Example 19] | 72.1 nM | 50 to 200 nM | 261 nM | 100 to 500 nM | – | – | –
COc1cnc(Cl)cc1-c1cc(C)ncc1C(=O)Nc1nc2cc3c(cc2s1)C(=O)N(C)CCC3 [Example 225, 2'-chloro-5'-methoxy-6-methyl-N-(6-methyl-5-oxo-6,7,8,9-tetrahydro-5H-thiazolo[4',5': 4,5]benzo[1,2-c]aza-2-yl)-[4,4'-bipyridine]-3-carboxamide] | – | – | – | – | – | 56.2 nM | 21.1 nM
COc1cnc(Cl)cc1-c1cc(C)ncc1C(=O)Nc1nc2cc3c(cc2s1)N(c1ccnn1C)CCO3 [Example 194, 2'-chloro-5'-methoxy-6-methyl-N-(8-(1-methyl-1H-parazol-5-yl)-7,8-dihydro-6H-thiazolo[5',4':4,5]benzo[1,2-b][1,4]oxazin-2-yl)-[4,4'-bipyridine]-3-carboxamide] | – | – | – | – | – | 65.6 nM | 22.9 nM
COc1cnc(C(F)F)cc1-c1cc(C)ncc1C(=O)Nc1nc2cnc(N3CCCCC3=O)nc2s1 [Example 201, 2'-(difluoromethyl)-5'-methoxy-6-methyl-N-(5-(2-oxopiperidin-1-yl)thiazolo[5,4-d]pyrimidin-2-yl)-[4,4'-bipyridine]-3-carboxamide] | 5.24 nM | – | 224 nM | – | – | – | –
COc1cnc(Cl)cc1-c1cc(C)ncc1C(=O)Nc1nc2cnc(-c3ccc(S(F)(F)(F)(F)F)cc3)cc2s1 [Example 188] | 36.7 nM | – | < 1.52 nM | – | – | – | –
COc1cnc(Cl)cc1-c1cc(C)ncc1C(=O)Nc1nc2cc(F)c(-c3ccc(P4(=O)CCCC4)cc3)cc2s1 [Example 190] | 5.08 nM | – | 3.28 nM | – | – | – | –
COc1cnc(Cl)cc1-c1cc(C)ncc1C(=O)Nc1nc2ccc(C3=CCC(O)CC3)c(C#N)c2s1 (stereo not shown) [Example 22] | 115 nM | 50 to 200 nM | 1580 nM | > 1000 nM | – | – | –

The remaining molecules from weak to strong by IC50 [1, 3], led by results:

IC50 [1, 3] | IC50 [1, 4] | Structure (SMILES) | IC50 [2, 5] | IC50 [2, 6] | IC50 ([1]; read-out: Biochemical assay IC50) | IC50 [2, 7] | IC50 ([1]; Biochemical assay IC50 (nM))
3.11 nM | – | COc1cnc(C(F)F)cc1-c1cc(C)ncc1C(=O)Nc1nc2cnc(-c3c(C)nnn3C)c(F)c2s1 [Example 215, 2'-(difluoromethyl)-N-(6-(1,4-dimethyl-1H-1,2,3-triazol-5-yl)-7-fluorothiazolo[4,5-c]pyridin-2-yl)-5'-methoxy-6-methyl-[4,4'-bipyridine]-3-carboxamide] | 2.92 nM | – | – | – | –
2.95 nM | < 50 nM | COc1cnc(Cl)cc1-c1cc(C)ncc1C(=O)Nc1nc2ccc(C3=CCC(O)CC3)c(F)c2s1 (stereo not shown) [Example 20] | 7.64 nM | < 100 nM | – | – | –
2.89 nM | < 50 nM | COc1cnc(Cl)cc1-c1cc(C)ncc1C(=O)Nc1nc2ncc(C3=CCC4(CC3)COC4)cc2s1 [Example 78] | 8.21 nM | < 100 nM | – | – | –
2.84 nM | < 50 nM | COc1cnc(Cl)cc1-c1cc(C)ncc1C(=O)Nc1nc2ncc(C3=CCC(NC(C)=O)CC3)cc2s1 (stereo not shown) [Example 23] | 15.3 nM | < 100 nM | – | – | –
2.67 nM | < 50 nM | COc1cnc(Cl)cc1-c1cc(C)ncc1C(=O)Nc1nc2c(F)cc(N3CCC(O)CC3)cc2s1 [Example 103] | 22.4 nM | < 100 nM | – | – | –
2.61 nM | < 50 nM | [2H]C([2H])([2H])c1cc(-c2cc(Cl)ncc2OC)c(C(=O)Nc2nc3cnc(C4=CCC(O)CC4)cc3s2)cn1 (stereo not shown) [Example 110, 2'-chloro-N-(6-(4-hydroxycyclohex-1-en-1-yl)thiazolo[4,5-c]pyridin-2-yl)-5'-methoxy-6-(methyl-d3)-[4,4'-bipyridine]-3-carboxamide] | 2.41 nM | < 100 nM | – | – | –
2.51 nM | – | COc1cnc(Cl)cc1-c1cc(C)ncc1C(=O)Nc1nc2cnc(-c3c(C)nn(C)c3C)cc2s1 [Example 163] | 3.41 nM | – | – | – | –
2.29 nM | – | [2H]C([2H])([2H])n1ncc(C)c1-c1cc2sc(NC(=O)c3cnc(C)cc3-c3cc(Cl)ncc3OC)nc2cn1 [Example 149] | 3.54 nM | – | – | – | –
1.93 nM | – | COc1cnc(Cl)cc1-c1cc(C)ncc1C(=O)Nc1nc2cnc(-c3nnn(C)n3)cc2s1 [Example 209] | 6.82 nM | – | – | – | –
1.09 nM | < 50 nM | COc1cnc(Cl)c(F)c1-c1cc(C)ncc1C(=O)Nc1nc2ncc(C3=CCC(O)CC3)cc2s1 (stereo not shown) [Example 8] | 24.2 nM | < 100 nM | – | – | –
